One data set relates to HOS. The experiment in a line: Cytotoxicity against HOS cells upto 1 uM by celltiter glo assay. The format is cell-based. To be noted: human. On the technique in general: ATP-based viability assays read luminescence as a measure of living cells.
Data set [1] is described as follows: Cytotoxicity against peripheral blood lymphocyte cells upto 1 uM by celltiter glo assay. The class given is cell-based. To be noted: human.

Consider `C=CCN(C(=O)NCc1ccc(F)cc1)C1CCN(CCC2(c3cccc(F)c3)CCN(C(=O)c3cc(S(=O)(=O)NC(C)(C)C)c(F)cc3Cl)CC2)CC1`, for which the Activity result (in the data set on HOS; in data set [1]) was “Non-toxic” each time.
Turning to `C=CCN(C(=O)OCc1ccc(OC(F)(F)F)cc1)C1CCN(CCC2(c3cccc(F)c3)CCN(C(=O)c3cc(S(=O)(=O)NC(C)(C)C)c(F)cc3Cl)CC2)CC1`, the Activity result (in the data set on HOS; in data set [1]) was “Non-toxic” in each case.
Consider `C=CCN(C(=O)Cc1ccc(OC(F)(F)F)cc1)C1CCN(CCC2(c3cccc(F)c3)CCN(C(=O)c3cc(S(=O)(=O)NC(C)(C)C)c(F)cc3Cl)CC2)CC1`, for which the Activity result (with HOS; in data set [1]) was “Non-toxic” in each case.
Take `C=CCN(C(=O)NCc1ccc(C(N)=O)cc1)C1CCN(CCC2(c3cccc(F)c3)CCN(C(=O)c3cc(S(=O)(=O)NC(C)(C)C)c(F)cc3Cl)CC2)CC1`: the Activity result (with HOS; in data set [1]) was “Non-toxic” each time.
`C=CCN(C(=O)OCc1ccc(C#N)cc1)C1CCN(CCC2(c3cccc(F)c3)CCN(C(=O)c3cc(S(=O)(=O)NC(C)(C)C)c(F)cc3Cl)CC2)CC1`: the Activity result (in the data set on HOS; in data set [1]) was “Non-toxic” throughout.
With `C=CCN(C(=O)NCc1ccc(C(F)(F)F)cc1)C1CCN(CCC2(c3cccc(F)c3)CCN(C(=O)c3cc(S(=O)(=O)NC(C)(C)C)c(F)cc3Cl)CC2)CC1`, the Activity result (in the data set with HOS; in data set [1]) was “Non-toxic” in each case.
For `C=CCN(C(=O)Nc1ccc(OC(C)=O)cc1)C1CCN(CCC2(c3cccc(F)c3)CCN(C(=O)c3cc(S(=O)(=O)NC(C)(C)C)c(F)cc3Cl)CC2)CC1`, the Activity entry (with HOS; in data set [1]) was “Non-toxic” in each case.
As to `C=CCN(C(=O)Nc1ccc(F)cc1)C1CCN(CCC2(c3cccc(F)c3)CCN(C(=O)c3cc(S(=O)(=O)NC(C)(C)C)c(F)cc3Cl)CC2)CC1`, the Activity result (in the data set on HOS; in data set [1]) was “Non-toxic” throughout.
With `C=CCN(C(=O)Cc1ccc(C(N)=O)cc1)C1CCN(CCC2(c3cccc(F)c3)CCN(C(=O)c3cc(S(=O)(=O)NC(C)(C)C)c(F)cc3Cl)CC2)CC1`, the Activity entry (in the data set with HOS; in data set [1]) was “Non-toxic” throughout.
Turning to `C=CCN(C(=O)NCc1ccc(C(=O)OC)cc1)C1CCN(CCC2(c3cccc(F)c3)CCN(C(=O)c3cc(S(=O)(=O)NC(C)(C)C)c(F)cc3Cl)CC2)CC1`, the Activity entry (in the data set with HOS; in data set [1]) was “Non-toxic” throughout.
Regarding `C=CCN(C(=O)OCc1ccc(S(C)(=O)=O)cc1)C1CCN(CCC2(c3cccc(F)c3)CCN(C(=O)c3cc(S(=O)(=O)NC(C)(C)C)c(F)cc3Cl)CC2)CC1`, the Activity entry (with HOS; in data set [1]) was “Non-toxic” throughout.
As to `C=CCN(C(=O)Nc1ccc(C(F)(F)F)cc1)C1CCN(CCC2(c3cccc(F)c3)CCN(C(=O)c3cc(S(=O)(=O)NC(C)(C)C)c(F)cc3Cl)CC2)CC1`, the Activity result (in the data set with HOS; in data set [1]) was “Non-toxic” throughout.
Consider `C=CCN(C(=O)OCc1ccc(F)cc1)C1CCN(CCC2(c3cccc(F)c3)CCN(C(=O)c3cc(S(=O)(=O)NC(C)(C)C)c(F)cc3Cl)CC2)CC1`, for which the Activity result (with HOS; in data set [1]) was “Non-toxic” in each case.
In the case of `C=CCN(C(=O)NCc1ccc(C#N)cc1)C1CCN(CCC2(c3cccc(F)c3)CCN(C(=O)c3cc(S(=O)(=O)NC(C)(C)C)c(F)cc3Cl)CC2)CC1`, the Activity result (in the data set on HOS; in data set [1]) was “Non-toxic” in each case.
On to `C=CCN(C(=O)Nc1ccc(S(C)(=O)=O)cc1)C1CCN(CCC2(c3cccc(F)c3)CCN(C(=O)c3cc(S(=O)(=O)NC(C)(C)C)c(F)cc3Cl)CC2)CC1`, for which the Activity result (with HOS; in data set [1]) was “Non-toxic” each time.
`C=CCN(C(=O)OCc1ccc(C(=O)OC)cc1)C1CCN(CCC2(c3cccc(F)c3)CCN(C(=O)c3cc(S(=O)(=O)NC(C)(C)C)c(F)cc3Cl)CC2)CC1`: the Activity entry (in the data set on HOS; in data set [1]) was “Non-toxic” in each case.
Consider `C=CCN(C(=O)OCc1ccc(C(F)(F)F)cc1)C1CCN(CCC2(c3cccc(F)c3)CCN(C(=O)c3cc(S(=O)(=O)NC(C)(C)C)c(F)cc3Cl)CC2)CC1`, for which the Activity result (with HOS; in data set [1]) was “Non-toxic” each time.
For the molecule `C=CCN(C(=O)Nc1ccc(C#N)cc1)C1CCN(CCC2(c3cccc(F)c3)CCN(C(=O)c3cc(S(=O)(=O)NC(C)(C)C)c(F)cc3Cl)CC2)CC1`, the Activity result (in the data set on HOS; in data set [1]) was “Non-toxic” in each case.
On to `C=CCN(C(=O)Cc1ccc(S(C)(=O)=O)cc1)C1CCN(CCC2(c3cccc(F)c3)CCN(C(=O)c3cc(S(=O)(=O)NC(C)(C)C)c(F)cc3Cl)CC2)CC1`, for which the Activity result (with HOS; in data set [1]) was “Non-toxic” throughout.
As for `C=CCN(C(=O)Cc1ccc(F)cc1)C1CCN(CCC2(c3cccc(F)c3)CCN(C(=O)c3cc(S(=O)(=O)NC(C)(C)C)c(F)cc3Cl)CC2)CC1`, the Activity result (in the data set on HOS; in data set [1]) was “Non-toxic” each time.
Regarding `C=CCN(C(=O)Cc1ccc(C(F)(F)F)cc1)C1CCN(CCC2(c3cccc(F)c3)CCN(C(=O)c3cc(S(=O)(=O)NC(C)(C)C)c(F)cc3Cl)CC2)CC1`, the Activity result (in the data set with HOS; in data set [1]) was “Non-toxic” throughout.

The values are drawn from ChEMBL document CHEMBL1287715, “Discovery of N-benzyl-N'-(4-pipyridinyl)urea CCR5 antagonists as anti-HIV-1 agents (I): optimization of the amine portion” (Bioorg Med Chem Lett, 2010).
